Reference: US12174172B2, “Method for evaluating the efficacy of a composition in reducing the effects of cancer therapeutics on skin” (Johnson & Johnson Consumer Inc., priority 2019, dated 2024)
“Also recorded” adds a separate entry of the source.

Experiments:
Keratinocytes = assay: WST-8 viability and proliferation assay; assay type: cell-based, human; conditions: keratinocytes exposed for 24 h, relative to vehicle (FIG. 5a)
Description: The Water-Soluble Tetrazolium Salts (WST-8) Colorimetric Cell Proliferation Kit (Promokine, Heidelberg, Germany) provides a rapid and sensitive way to quantify proliferation and cell viability. Cell proliferation causes an increase in the amount of formazan dye formed that can be quantified by measuring the absorbance of the dye solution at […] using a microtiter plate reader (Perkin Elmer EnVision 2103 Multilabel Reader, Waltham, MA, USA). Cellular proliferation induces an increase in the activity of mitochondrial dehydrogenases, which cleaves the tetrazolium salt […] into formazan. 15,000 Keratinocytes per well were seeded on 96-well plate, once confluence reach, drug concentration used were +/−½ log of the plasmatic concentration. 10 μl of Colorimetric Cell Viability Kit is added and completed with 360 μl of culture media, results were read after 4 h at 450 nm to determine cell viability. Results were obtained with 6 donors of keratinocytes in 2 experiments

[1] = system: caspase-3 activity in keratinocytes; assay: Caspase-3 fluorometric assay (cell apoptosis); assay type: cell-based, human; conditions: 2.59 nM and 25.89 nM, 24 h (FIG. 5b)
Description: The kit (biotium, Fremont, CA, USA) provides a homogenous assay system for fast and highly sensitive detection of caspase-3 activity by fluorescence in enzymatic reaction or mammalian cells. The fluorogenic substrate (Ac-DEVD) 2-R110 contains two DEVD (Asp-Glu-Val-Asp) tetrapeptides and is completely hydrolyzed by the enzyme in two successive steps. Cleavage of the first DEVD peptide results in the monopeptide Ac-DEVD-R110 intermediate, which has absorption and emission wavelengths similar to those of R110 (Ex/Em=496/520 nm) but has only about 10% of the fluorescence of the latter. Hydrolysis of the second DEVD peptide releases the dye R110, leading to a substantial fluorescence increase. Keratinocytes were plated at 15,000 cells per well in 100 μl of medium in a 96-well black microplate. They were allowed to attach and grow overnight in a 37° C., 5% CO2 incubator. They were then treated for 20 h with a 1:2 dilution series of staurosporine, a caspase 3 inducer. Imaging was performed on Perkin Elmer EnVision 2103 Multilabel Reader using an excitation wavelength of 490 nm and emission wavelength of 535 nm. Cells were incubated at room temperature for 15 min, protected from light. Results were obtained with 6 donors of keratinocytes in 2 experiments

Structure (SMILES): CN(C)C/C=C/C(=O)Nc1cc2c(Nc3ccc(F)c(Cl)c3)ncnc2cc1O[C@H]1CCOC1 [Afatinib]
- cell viability (Keratinocytes): decreases; also recorded: significant effect
- cell apoptosis [1]: does not induce apoptosis; also recorded: did not show any effect; also recorded: not affected
